Results reported in article PMC7370187, “Screening of an Epigenetic Drug Library Identifies 4-((hydroxyamino)carbonyl)-N-(2-hydroxyethyl)-N-Phenyl-Benzeneacetamide that Reduces Melanin Synthesis by Inhibiting Tyrosinase Activity Independently of Epigenetic Mechanisms” (International Journal of Molecular Sciences, 2020).

Key:
[1] = test system: TYR, TYRP1, DCT and MITF protein in B16-F10 cells; test: Western blotting of melanogenic proteins; format: cell-based, murine; conditions: 100 nM α-MSH, 24 h, β-actin loading control
Experimental: Western blotting was performed as previously described. Primary antibodies for TYR (#127217) was purchased from MyBioSource (San Diego, CA, USA). Primary antibodies for TYRP1 (#10443) and β-actin (#47778) were purchased from Santa Cruz Biotechnology (Santa Cruz, CA, USA). Primary antibodies for MITF (#20663) and DCT (#74073) were purchased from Abcam (Cambridge, UK). Anti-rabbit IgG (#2357) and anti-goat IgG (#2020) secondary antibodies were purchased from Santa Cruz Biotechnology. Anti-mouse IgG (#7076) secondary antibody was purchased from Cell Signaling Technology (Danvers, MA, USA). Each antibody was diluted 1 to 1000 in antibody dilution buffer containing 20 mM Tris-Cl (pH 7.5), 200 mM NaCl and 5% skim milk.
After B16-F10 cells were treated with drug and/or α-MSH, whole-cell lysates were prepared using a lysis buffer (pH 7.2) consisting of 10 mM Tris-Cl (pH 7.4), 120 mM NaCl, 25 mM KCl, 2 mM EGTA, 1 mM EDTA, 0.5% Triton X-100 and a protease inhibitor cocktail (Roche, Mannheim, Germany) for foe evaluation of TYR, TYRP1, and DCT. For MITF extraction, cells were extracted with RIPA buffer consisting of 25 mM Tris-HCl (pH 7.6), 150 mM NaCl, 1% NP-40, 1% sodium deoxycholate, 0.1% SDS and protease inhibitor cocktail. Proteins were denatured in the Laemmli sample buffer by heating at 95 °C for 5 min and separated by 7.5% SDS-PAGE gel. Proteins were transferred to a polyvinylidene difluoride membrane (Amersham Pharmacia, Little Chalfont, UK). The membrane was incubated with a primary antibody solution at 4 °C overnight, followed by incubation with a solution of a secondary antibody conjugated to horseradish peroxidase at room temperature for 1 h. The target protein bands were detected by a chemiluminescence method using a picoEPD Western Reagent kit (ELPIS-Biotech, Daejeon, Korea). The blots were analyzed using the NIH Image J program.

[2] = test system: TYR, TYRP1, DCT and MITF mRNA in B16-F10 cells; test: qRT-PCR analysis of melanogenic gene mRNA; format: cell-based, murine; conditions: 100 nM α-MSH, 12 h, normalized to GAPDH
Experimental: After B16-F10 cells were treated with drug and/or α-MSH, cellular RNA was extracted using an RNeasy kit (Qiagen, Valencia, CA, USA) and the complementary DNA (cDNA) was synthesized by reverse transcription using a High-Capacity cDNA Archive Kit (Applied Biosystems, Foster City, CA, USA). qRT-PCR was conducted using a StepOnePlus™ Real-Time PCR System (Applied Biosystems). The reaction mixture (20 μL) comprised SYBR® Green PCR Master Mix (Applied Biosystems), 60 ng cDNA, and 2 pmol gene-specific primer sets (Macrogen, Seoul, Korea).
The reaction protocol was as follows: initial incubation at 50 °C for 2 min; DNA polymerase activation at 95 °C for 15 min; and annealing and extension at 60 °C for 1 min. In each PCR run, the melting curve was checked to confirm the homogeneity of the PCR product. The mRNA expression levels of the gene of interest were determined using the comparative Ct method, and normalized to the internal reference GAPDH [59]. In this method, Ct is defined as the number of PCR cycles required for the signal to exceed the threshold. Fold changes in the test group compared to the control group were calculated as 2^−ΔΔCt, where ΔΔCt = ΔCt(test) − ΔCt(control) = [Ct(gene, test) − Ct(reference, test)] − [Ct(gene, control) − Ct(reference, control)].

TYR = test: In vitro TYR catalytic activity, murine and human TYR given together (abstract); format: biochemical; conditions: range over human and murine TYR preparations
Experimental: (§1) To examine the direct effect of a drug on the catalytic activity of TYR, in vitro experiments were undertaken. Lysate of B16F10 cells stimulated with α-MSH for 24 h was used as a murine TYR preparation. Human TYR preparation was the lysate of human embryonic kidney 293 cells constitutively expressing human TYR (HEK293-TYR). […] The TYR activity assay mixture (200 μL) consisted of 100 mM sodium phosphate buffer (pH 6.8), TYR preparation (40 μg protein), a drug at various concentrations, 1.0 mM L-tyrosine, and 42 μΜ L-DOPA. For enzyme kinetic study, the concentrations of L-tyrosine plus L-DOPA were varied while their relative ratio was kept the same as the standard assay condition. […] The reactions were also performed in the absence of a TYR preparation to correct for the effects of non-enzymatic reactions. Enzyme activity was calculated as follows: activity (% control) = (C−D)/(A−B) × 100, where A and B are the absorbance changes of the control group with and without enzyme, respectively, while C and D are the absorbance changes of the test group with and without enzyme, respectively.

murine TYR = target: T1, murine TYR (Mus musculus, UniProt P11344); test: In vitro TYR catalytic activity assay, lysate of α-MSH-stimulated B16F10 cells; format: biochemical
T1 construct: One is the protein extract of B16F10 cells stimulated by α-MSH and thus expresses a high amount of TYR; endogenous in cells; host or cells: B16F10 murine melanoma cells stimulated with α-MSH for 24 h; Triton X-100 lysate supernatant
T1 sequence (P11344 19-533): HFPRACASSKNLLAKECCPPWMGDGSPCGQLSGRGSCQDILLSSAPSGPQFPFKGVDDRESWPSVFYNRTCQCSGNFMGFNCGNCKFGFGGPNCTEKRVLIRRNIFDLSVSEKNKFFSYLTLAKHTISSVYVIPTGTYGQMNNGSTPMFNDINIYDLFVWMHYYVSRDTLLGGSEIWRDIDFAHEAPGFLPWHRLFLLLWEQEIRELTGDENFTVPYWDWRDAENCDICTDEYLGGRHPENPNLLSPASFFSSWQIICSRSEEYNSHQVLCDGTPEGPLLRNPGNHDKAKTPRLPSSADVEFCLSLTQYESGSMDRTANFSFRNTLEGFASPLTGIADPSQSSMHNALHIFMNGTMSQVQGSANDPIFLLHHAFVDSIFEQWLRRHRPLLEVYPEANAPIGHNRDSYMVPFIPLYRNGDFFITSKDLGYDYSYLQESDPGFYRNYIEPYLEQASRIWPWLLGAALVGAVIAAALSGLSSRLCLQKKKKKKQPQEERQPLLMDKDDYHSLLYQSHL
Experimental: as §1

`O=C(NO)c1ccc(CC(=O)N(CCO)c2ccccc2)cc1` [K8, 4-((hydroxyamino)carbonyl)-N-(2-hydroxyethyl)-N-phenyl-benzeneacetamide] was tested. Which DCT protein level [1] did it give?
The DCT protein level was “did not significantly attenuate the increase”.

What about the MITF protein expression [1] of the same compound?
Its MITF protein expression is “not significantly affected”.

What about the “TRP1 (TYRP1) protein level” value [1] of the same compound?
Its value is “did not significantly attenuate the increase”.

And the TYR protein level [1]?
Its TYR protein level is “did not significantly attenuate the increase”.

What about the “DCT mRNA level” value [2] of the same compound?
The value was “not significantly affected”.

What about the “MITF mRNA expression” value [2] of the same compound?
Its value is “not significantly affected”.

And the “TYR mRNA level” value [2]?
Its value is “not significantly affected”.

What about the “TYRP1 mRNA level” value [2] of the same compound?
The value was “not significantly affected”.

And the IC50 (TYR)?
Its IC50 is 1.1 to 1.5 µM.

What about the IC50 (murine TYR; B16F10 cell-free extract, L-tyrosine plus L-DOPA) of the same compound?
Its IC50 is 1.5 µM.

What about the “inhibition type (Lineweaver–Burk plots)” value (murine TYR; murine TYR, varying substrate concentrations) of the same compound?
Its value is “competitive type of inhibition”.
